Columns and labels:
[1] = tested on: multiple sclerosis mouse model; conditions: oral administration; cited from earlier work
[2] = tested on: mouse with photoreceptor cell damage caused by light irradiation; conditions: oral administration; cited from earlier work
[3] = tested on: retinal detachment-induced animal; conditions: intraperitoneal administration; cited from earlier work
glaucoma rat model = conditions: intraperitoneal administration; cited from earlier work
[4] = tested on: human nasal septum squamous carcinoma cells (RPMI-2650); experiment: Cell permeability (Transwell), RPMI-2650; type: in vitro ADME; conditions: RPMI-2650 on Transwell; 0.1% GGA (all-trans:5Z-mono-cis 6:4); 30 minutes or 4 hours; compared with MDCK-I; FIG. 3
Protocol: (§1) The following test was performed using three types of cells, human corneal epithelial cells (HCET), human nasal septum squamous carcinoma cells (RPMI-2650), and canine renal tubular epithelial cells (MDCK-I), which are often used as an intestinal permeability assay model. The medium used for culture of each type of cells is shown below.
RPMI-2650: a minimum essential medium (MEM, Invitrogen) supplemented with 10% (v/v) fetal calf serum (Daiichi Pure Chemicals)
GGA having a weight ratio of the all-trans form to the 5Z-mono-cis form of 6:4 (Wako Pure Chemical Industries, Ltd.) was used as a test substance. Amounts of 100 mg of GGA and 0.25 mg of α-tocopherol (Wako Pure Chemical Industries, Ltd.) as an antioxidant were weighed and dissolved in 789 mg of 100% ethanol. The GGA dissolved in ethanol was diluted and dissolved in serum-free medium appropriate for each type of cells to a final concentration of 0.1 w/v %.
Each type of cells was seeded onto a Transwell 24-well microplate (CORNING) at 5.0×10, cells per well and cultured under 5% CO2 at 37° C. To each of the Transwells' lower chambers, 600 μL of the same medium as used for cell culture was added. […] After the culture period, the culture supernatant in the Transwells was recovered and the residual GGA in the supernatant was measured. […]
(§2) The concentration of GGA was measured as follows. […]

[5] = tested on: mouse with retinal injury induced by ischemia; conditions: oral administration; cited from earlier work
[6] = Decomposition of teprenone eye drop by direct sunlight in containers; type: physicochemical; conditions: direct sunlight 24 hours; Container C (polyethylene terephthalate); vs aluminum foil covered control
Protocol: An eye drop containing teprenone was prepared. Specifically, the eye drop was prepared as follows. To surfactants (polysorbate 80 and POE castor oil) warmed to 65° C., teprenone was added and dissolved under stirring in hot water bath at 65° C. for 2 minutes. Water at 65° C. was added, a buffer solution was added, and the mixture was mixed under stirring to give a homogeneous solution. The pH and osmotic pressure were adjusted with hydrochloric acid or sodium hydroxide. The resulting solution was filtered through a membrane filter with a pore size of 0.2 μm (bottle top filter, Thermo Fisher Scientific) to give a clear sterile eye drop.
The eye drop was separately poured, using a glass volumetric pipette, into 10- to 15-mL plastic or glass containers each in an amount of 5 mL (5 g) and the containers were sealed. These eye drops were placed in the upright position on a test-tube stand and left to stand under direct sunlight for 24 hours (test samples). […]
The amount of teprenone contained in the test or control eye drops was measured by HPLC and the amount of decomposition (mg/100 mL) by light irradiation was calculated. The amount of decomposition by light irradiation was calculated as follows: […]

[7] = tested on: NMDA-induced glaucoma rat model; experiment: Protective effect against NMDA-induced nerve damage, instillation into the nose and administration to the oral cavity; type: in vivo, Sprague-Dawley (SD) rats; conditions: vs no GGA
Protocol: (§3) In recent years the glutamate analogue NMDA (N-methyl-D-aspartate) has been widely reported to be one of causative agents of neurodegenerative diseases including Alzheimer's disease. In the ophthalmic field, NMDA is considered to be involved in optic nerve damage in glaucoma (Brain Research Bulletin, 81 (2010) 349-358). Accordingly, in this experiment rat models with glaucoma induced by NMDA were used to evaluate the neuroprotective effect of GGA.
To Sprague-Dawley (SD) rats (n=6), 20 μL of 100% (w/v) GGA (all-trans form) was intranasally administered once a day for five days and after each administration the rats were maintained under anesthesia for 30 minutes. On the third day after the start of the administration of GGA, 5 μL of 4 mM NMDA was intravitreously administered to induce nerve damage. […]
Three days after the administration of NMDA, the eyeballs were harvested, fixed in Karnovsky's fixative solution for 24 hours, embedded in paraffin, thin sectioned and stained with hematoxylin-eosin (HE) to prepare histopathological sections. The histological sections were observed under an optical microscope and the thickness (μm) of the inner plexiform layer (IPL) of the retina was measured. Based on the thickness of the inner plexiform layer (IPL) of the retina, the neuroprotective effect of the tested eye drops was evaluated.

[8] = tested on: human corneal epithelial cells (HCET); experiment: Cell permeability (Transwell), HCET; type: in vitro ADME; conditions: HCET on Transwell; 0.1% GGA (all-trans:5Z-mono-cis 6:4); 30 minutes or 4 hours; compared with MDCK-I; FIG. 3
Protocol: as §1
HCET: a liquid medium containing an equal ratio of Dulbecco's modified Eagle's basal medium/Ham's F12 (DMEM/F-12, Invitrogen) supplemented with 0.5% DMSO (Wako Pure Chemical Industries, Ltd.), 10 ng/mL epidermal growth factor (R&D), 5 μg/mL insulin (Invitrogen) and 5% (v/v) fetal calf serum (Daiichi Pure Chemicals)
GGA having a weight ratio of the all-trans form to the 5Z-mono-cis form of 6:4 (Wako Pure Chemical Industries, Ltd.) was used as a test substance. Amounts of 100 mg of GGA and 0.25 mg of α-tocopherol (Wako Pure Chemical Industries, Ltd.) as an antioxidant were weighed and dissolved in 789 mg of 100% ethanol. […]
Each type of cells was seeded onto a Transwell 24-well microplate (CORNING) at 5.0×10, cells per well and cultured under 5% CO2 at 37° C. […] After the culture period, the culture supernatant in the Transwells was recovered and the residual GGA in the supernatant was measured. […]
as §2

[9] = tested on: NMDA-induced glaucoma rat model; experiment: Protective effect against NMDA-induced nerve damage, administration by instillation to the eye; type: in vivo, Sprague-Dawley (SD) rats; conditions: Test 2, FIG. 1: 1% memantine solution in PBS instilled twice a day for five days; 5 μL of 4 mM NMDA intravitreously; vs base (PBS)
From the text: as §3
To Sprague-Dawley (SD) rats (n=8), an eye drop containing 1% (w/v) GGA (all-trans form) or a control eye drop not containing GGA was pre-administered by instillation to the eye twice a day for five days. On the fifth day after the start of the instillation, 5 μL of 4 mM NMDA was intravitreously administered to induce nerve damage (Test 1). […]
Three days after the administration of NMDA, the eyeballs were harvested, fixed in half Karnovsky's fixative solution for 24 hours, embedded in paraffin, thin sectioned and stained with hematoxylin-eosin (HE) to prepare histopathological sections. The histological sections were observed under an optical microscope and the thickness (μm) of the inner plexiform layer (IPL) of the retina was measured. Based on the thickness of the inner plexiform layer (IPL) of the retina, the neuroprotective effect of the tested eye drops was evaluated.

Row | Molecule | cell loss in the ganglion [1] | number of degenerating axons in the optic nerve [1] | visual function [1] | thioredoxin and heat shock protein 72 in the retinal pigment epithelium [2] | apoptosis of photoreceptor cells [3] | expression of heat shock protein 70 [3] | expression of heat shock protein 72 (glaucoma rat model) | optic nerve damage (glaucoma rat model) | retinal ganglion cell death (glaucoma rat model) | permeability of GGA through cells [4] | number of surviving retinal neurons [5] | Amount of decomposition [6] | neuroprotective effect based on thickness of the inner plexiform layer (IPL) of the retina ([7]; FIG. 2: 20 μL of 100% (w/v) GGA (all-trans form) intranasally once a day for five days) | neuroprotective effect based on thickness of the inner plexiform layer (IPL) of the retina ([7]; FIG. 2: 100 μL of 100% (w/v) GGA (all-trans form) to the oral cavity once a day for five days) | permeability of GGA through cells [8] | neuroprotective effect based on thickness of the inner plexiform layer (IPL) of the retina [9]
1 | geranylgeranylacetone [GGA] | prevented cell loss in the ganglion | reduced the number of degenerating axons in the optic nerve | improved the visual function | induced thioredoxin and heat shock protein 72 in the retinal pigment epithelium | reduced the apoptosis of photoreceptor cells significantly | induced the expression of heat shock protein 70 | induced the expression of heat shock protein 72 | ameliorated optic nerve damage | reduced retinal ganglion cell death | higher than that through MDCK-I | significantly increased the number of surviving retinal neurons | significantly inhibited the decomposition of GGA | apparent neuroprotective effect | apparent neuroprotective effect | higher than that through MDCK-I | –
2 | CC12CC3CC(C)(C1)CC(N)(C3)C2 [memantine] | – | – | – | – | – | – | – | – | – | – | – | – | – | – | – | no neuroprotective effect

— patent publication US20140243419A1, “MUCOSALLY-APPLIED AGENT FOR PREVENTION, AMELIORATION OR TREATMENT OF RETINAL DISEASE” (ROHTO PHARMACEUTICAL CO., LTD., priority 2013, published 2014)
